Consider two compounds from patent US10308652B2, “Tricyclic heterocyclic compounds useful as inhibitors of TNF” (BRISTOL-MYERS SQUIBB COMPANY, priority 2015, dated 2019).

The target of this assay is TNFα (Homo sapiens (Human), UniProt P01375). The assay can be described thus: TNF induced HEK-Blue assay. It counts as cell-based. The settings on record: TNFα 0.5 ng/ml; HEK-Blue-CD40L cells, NF-κB-driven secreted alkaline phosphatase reporter; 18 h.
Chain of TNFα (P01375 77-233): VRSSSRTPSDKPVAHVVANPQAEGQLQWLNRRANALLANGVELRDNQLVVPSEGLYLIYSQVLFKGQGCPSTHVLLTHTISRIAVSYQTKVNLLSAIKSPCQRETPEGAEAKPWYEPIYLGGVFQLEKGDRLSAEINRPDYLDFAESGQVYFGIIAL

On to `CC(C)(O)c1ncc(-c2ccc3nc4c(n3n2)C(c2ccccc2OC(F)F)NCC4O)cn1` (centres unmarked) [Example 17, 9-(2-(difluoromethoxy)phenyl)-2-(2-(2-hydroxypropan-2-yl)pyrimidin-5-yl)-6,7,8,9-tetrahydropyrido[4′,3′:4,5]imidazo[1,2-b]pyridazin-6-ol], for which the IC50 is 1 to 10 µM.

For the compound `CC(C)(O)c1ncc(-c2ccc3nc4c(n3n2)[C@H](c2ccccc2OC(F)F)OC[C@@H]4O)cn1` (relative stereo) [Example 61, Cis-9-(2-(difluoromethoxy)phenyl)-2-(2-(2-hydroxypropan-2-yl)pyrimidin-5-yl)-6,9-dihydro-7H-pyrano[4′,3′:4,5]imidazo[1,2-b]pyridazin-6-ol], the IC50 fell in the range of 10 to 25 µM.
